Experimental data taken from patent US5932554A (priority 1997, dated 1999).

Biological target: cholera toxin (Vibrio cholerae serotype O1, UniProt P01556)
Test: biochemical
Format: binding, V. cholerae

Sequence of cholera toxin (P01556 22-124 limits assumed): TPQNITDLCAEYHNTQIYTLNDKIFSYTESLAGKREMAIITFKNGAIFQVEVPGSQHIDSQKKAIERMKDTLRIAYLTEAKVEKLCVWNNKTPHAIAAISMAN

Structure (SMILES): OC[C@H]1OC(O)[C@H](O)[C@@H](O)[C@H]1O (stereo partly drawn) [D-galactose]
- IC50: 30 mM
